Measurements: patent US20210379204A1, “METHOD FOR CALCULATING TOLERANCE DOSE OF HUMAN BODY TO SUGAR ALCOHOL AND FUNCTIONAL SUGAR” (Zhejiang Huakang Pharmaceutical Co., Ltd., priority 2018, published 2021)

How the values were obtained:
[1] = human daily intake, declared by some companies, no experimental data; cited from earlier work
[2] = 200 g rats, gavage each day, 14 days; maximum dose group in which no rat has diarrhea on day 14
[3] = tolerated dose of a 70 kg human body converted from the rat maximum tolerated dose (K = 56.0); conditions: rat dose N x conversion factor 56.0
Text: wherein K is a conversion factor between a 70 kg human body and a 200 g rat, which is 56.0; the maximum tolerated dose N of the rat to xylitol and the tolerated dose R of the human body to the xylitol are both in the unit of g/d; or,
wherein K is a conversion factor between a 70 kg human body and a 200 g rat, which is 56.0. The maximum tolerated dose N of the rat to xylitol and the tolerated dose R of the human body to the xylitol are both in the unit of g/d; or,
In the specific implementation, the maximum tolerated dose of the human body to a certain sugar alcohol or functional sugar recorded in the existing data is used as a reference value firstly. Taking xylitol as an example, the existing companies have declared that the daily intake of xylitol should not exceed 50 g. 50 g of xylitol is set as the reference value, and fluctuation is performed based on the reference value to obtain an estimated value of the experimental range. […] The experiment is continued for 14 days. Considering the experimental results and verification results comprehensively, the maximum tolerated dose N of 200 g rats to xylitol is obtained.

In the case of `O=C[C@H](O)[C@@H](O)[C@@H](O)CO` [L-arabinose], the “daily intake should not exceed” value [1] is listed as ≤ 120 g, the “maximum tolerated dose N of 200 g rat” value [2] is listed as 1.61 g/day and the “maximum tolerated dose R of the human body” value (shortened to “maximum tolerated dose R”) [3] is listed as 90 g/day.

With `OC[C@@H](O)[C@@H](O)[C@H](O)[C@@H](O)CO` [sorbitol] the “maximum tolerated dose N of 200 g rat” value [2] was 0.36 g/day and the “maximum tolerated dose R” value [3] was 20 g/day.

With `OC[C@@H](O)[C@H](O)[C@@H](O)CO` [xylitol] the “maximum tolerated dose N of 200 g rat” value [2] was 0.71 g/day and the “maximum tolerated dose R” value [3] was 40 g/day.
